# What was measured:
# yeast induced pyrexia = experiment: Antipyretic activity, yeast induced pyrexia in the rat; format: in vivo, rat (Wistar albine, female); details: for ED50: Rattus norvegicus, po, read-out: ED50 in mg/kg os.
# Description: Method of yeast induced pyrexia in the rat.
# Female Wistar albine rats, weighing 100-140 g, are employed. Animals having a rectal basal temperature from 36° to 37° C. are selected.
# The testing substances are administered orally simultaneously with the pyretic agent (dry brewer's yeast suspended in water at 20% concentration,administered volume 15 ml/kg, subcutaneously) to groups of 5 animals per dose.
# After 4,5,6,7 and 24 hours from the treatment, the rectal temperature of the animals is recorded by an Ellab RM6 probe, connected to an Ellab mod. TE-3 thermometer.
# The activity of the drugs is evaluated by utilizing a temperature index which is given by the algebraic sum of the differences in the rectal temperature between the measured values at different times and the basal value.
# bronchial mucus = experiment: Bronchosecretagogue activity, quantitative evaluation of the rabbit bronchial secretion; format: in vivo, rabbit (brown, male); details: for Percent increase of the bronchial mucus: second 4 h period versus first; for bronchosecretagogue / mucolytic activity: oral, result in words
# From the text: Method of quantitative evaluation of the rabbit bronchial secretion according to Scuri R. et al. Boll. Chim. Farm. 119, 181-7; 1980.
# Adult male brown rabbits (2.8-3.5 kg of body weight) to which a T shaped tracheal cannula is applied by surgical operation, as described in the above cited bibliographic reference, are used.
# To the cannula, a container for periodical collection of the bronchial secretion is applied.
# The study of mucoproduction, started on the fourth day after the operation, is divided into two periods (of 4 hours each), for collecting and measuring the secreted mucus. The action of the test drug is tested by administering it orally at the beginning of the second period of mucus collection and evaluating the percent increase in the mucus production (as measured gravimetrically) in the second period in comparison with the first period.
# [1] = test system: carrageenin induced oedema; experiment: Antiphlogistic activity, carrageenin induced oedema; format: in vivo, rat (Wistar albine, female); details: 3 h; rat, oral, one hour before carrageenin; paw volume at three hours; read-out: ED50 in mg/kg os.
# Description: Method of the carrageenin induced oedema according to Winter C. A. et al.--proc. Soc. Exp. Biol. Med--111, 544-7, 1962.
# Female Wistar albine rats (120-160 grams of body weight) are utilized.
# The test drug is administered orally one hour before injection of a carrageenin water suspension into the right hind paw (1%, injected volume […]).
# The volume of the injected paw is recorded simultaneously with the carrageenin injection and three hours after the same by a plethysmometer (U. Basile, mod. 7150-Comerio, Varese).
# [2] = test system: phenylquinone abdominal contractions; experiment: Analgesic activity, method of phenylquinone (abdominal contractions); format: in vivo, mouse (Swiss albine, female); details: mouse, oral; for ED50: 20 min, 30 minutes before phenylquinone, contractions during 20 minutes, read-out: ED50 in mg/kg os.
# Description: Female Swiss albine mice (20-25 g), fasting since 2 hours are employed.
# The test drug is administered orally 30 minutes before endoperitoneal injection of phenylquinone (0.08 mg/mouse).
# The characteristic abdominal contractions are counted individually during a 20 minutes period.
# mouse = experiment: in vivo; details: oral, result in words
# Description: (§1) Method for studying the lethal dose 50 (LD50) in the mouse after a single administration.
# (§2) Groups of 10 Swiss albine, female, adult mice (20-22 grams of body weight) fasting from the evening preceding the test, are treated orally with varying doses of the test drup suspended into hydroxyethylcellulose (0.5% w/v.)
# (§3) Thereafter, the animals are fed again.
# in vivo = details: mouse, in vivo, po
# Description: as §1, §2, §3
# [3] = test system: gastric lesions or submucosa hemorrhages; experiment: Gastric tolerability, gastric ulcerogenesys by repeated drug administrations; format: in vivo, rat (Wistar albine, female); details: rat, oral for 5 days, result in words
# Description: Method of gastric ulcerogenesys by repeated drug administrations.
# Fed female Wistar albine rats (140-160 g of initial body weight) are used.
# The test drug is administered orally for 5 days. At the end of the experiment, the rat's stomach is withdrawn, it is dissected along the lesser curvature, washed and observed in order to disclose the presence of either gastric lesions or manifest submucosa hemorrhages.
# [4] = listed as compound of the present invention
SMILES,ED50 (yeast induced pyrexia) [mg/kg],"antipyretic activity (yeast induced pyrexia; rat, oral, result in words)",Percent increase of the bronchial mucus (bronchial mucus; 600 mg/kg os.) [%],bronchosecretagogue / mucolytic activity (bronchial mucus; [4]),bronchosecretagogue / mucolytic activity (bronchial mucus; listed as ester of formula (I)),ED50 [1] [mg/kg],ED50 [2] [mg/kg],analgesic activity versus (+)6 methoxy-α-methyl-2-naphthalene acetic acid ([2]; result in words),acute toxicity (mouse),LD50 at 336 h (in vivo) [mg/kg],"gastric tolerability [3, 4]",gastric tolerability ([3]; listed as ester of formula (I)),gastric tolerability ([3]; listed as such compound),Percent increase of the bronchial mucus (bronchial mucus; 300 mg/kg os.) [%]
"COc1ccc2cc([C@H](C)C(=O)OCC3=CCC(C(C)(C)O)CC3)ccc2c1 (single isomer, unassigned; (+)) [CO/1446]",30,"good antipyretic activity, though lower than the control",32,has bronchosecretagogue activity in the rabbit,marked mucolytic activity of the bronchial secretion,30,3.9,significantly more active,very low acute toxicity,4000,well tolerated by the gastric mucose of the rat,very good gastric tolerability,better tolerated than (+)6-methoxy-α-methyl-2-naphthalene acetic acid,
"COc1ccc2cc([C@H](C)C(=O)O)ccc2c1 [(+)6-methoxy-α-methyl-2-naphthalene acetic acid, reference compound]",14,,,,,35,18.5,,,,,,,0
